# Results published in patent US6759051B2, “Cosmetic or dermatological composition comprising at least one alkynyl carbamate and at least one polyol” (L'Oreal, priority 1998, dated 2004).
# System: Pityrosporum ovale from the Institut Pasteur, reference CIP 1363.82
# Test: Antifungal activity by the MIC (Minimum Inhibitory Concentration) method
# Assay type: cell-based
# Conditions: each compound at the concentration MIC/2; Sabouraud+Tween 40+glyceryl monooleate agar medium, 48 hours at 30° C
# Experimental: The activity of the combination of compound (A) and compound (B) was determined by a conventional method known as the MIC (Minimum Inhibitory Concentration), the MIC corresponding to the concentration at which a given […] inhibits the growth of a given strain under defined conditions.
# In this instance, strains of Pityrosporum ovale from the Institut Pasteur, reference CIP 1363.82, were used.
# An inoculum of a fresh culture, of 1 to 10×10^7 cells/ml, is introduced into a Sabouraud+Tween 40 at 10 g/l+glyceryl monooleate at 2.5 g/l agar medium, in the presence or absence of the compound or of the combination of the compounds to be studied, and incubated for 48 hours at 30° C.
row,Structure (SMILES),growth of the microorganism
1,"CCCCNC(=O)OCC#CI [Compound A, 3-iodo-2-propynyl butyl carbamate]",identical to that of the control medium
2,"CCCCC(CC)COCC(O)CO (centres unmarked) [Compound B, 3-(2-ethylhexyloxy)-1,2-propanediol]",identical to that of the control medium
